Reference: patent US9464055B2, “Quinoline derivatives useful as CB-1 inverse agonists” (JANSSEN PHARMACEUTICA NV, priority 2014, dated 2016)

Target: T1, Human CB2R (Cannabinoid receptor 2) (Homo sapiens, UniProt P34972)
T1 construct: host or cells: HEK-293
Assay: CB-2 in vitro cAMP (HTRF) functional assay
Format: cell-based
Conditions: mean where tested more than once
From the text: CB1 and CB2 receptors are Gi-coupled GPCR. Activation of CB1 and CB2 receptors results in a decrease in cAMP production. An inverse agonist of the CB1 or CB2 receptor results in the opposite effect, an increase of cAMP production. The principle of this assay is based on HTRF® technology (Homogeneous Time-Resolved Fluorescence). The method is a competitive immunoassay between native cAMP produced by cells and the cAMP labeled with the fluorophore d2. The tracer binding is quantified by a Mab anti-cAMP labeled with Eu3+ TBP-NHS Cryptate (supplied as part of the assay kit). The specific signal (i.e. energy transfer) is inversely proportional to the concentration of cAMP in the standard or sample.
Human CB1R (Cannabinoid receptor 1) was stably transfected in HEK-293 cells (DiscoveRx, cat: 93-0200C1). Human CB2R (Cannabinoid receptor 2) was stably transfected in HEK-293 cells (DiscoveRx, cat: 93-0201C1). Cell cultures were maintained in media: DMEM (Invitrogen Cat#12430-054) supplemented with 10% HI FBS (Invitrogen Cat#16140-071), 1% L-glutamine (Invitrogen Cat#25030-081), 0.2 mg/ml Hygromycin B (Invitrogen Cat#10687-010), 600 μg/mL G418 (Invitrogen Cat#10131-035), and 1× Penn/Strep (Invitrogen 15140-122). After cell expansion, aliquots were cryo-stored in media containing 5% DMSO (Pierce Cat#20684).
One day prior to experiments media was warmed to 37° C. and the cryo-stored cells were thawed in a 37° C. water bath. The cells were then added to media (10× volume) and the mixture was centrifuged at 1000 RPM for 5 min. The supernate was removed and the cells were re-suspended in media. A sample of the cell suspension was evaluated on a Cedex XS automated cell counter (Innovatis Systems) to determine viable cells/ml. Additional media was added to the cells to achieve a final cell density of 4E5 cells/mL. The cells were then plated into 384 well PDL white solid bottom plates (Greiner, Cat#781945) at 20 μL per well using a Multidrop (Thermo Scientific). Cells were removed from Row P (location of cAMP standards). Two columns of cells were plated into a clear bottom 384 well PDL coated plate (Greiner, Cat#781944) to view confluence the day of the assay. The cell plates were lidded and stored for 15 minutes in a hood, then transferred to an incubator (37° C., 5% CO2, 95% humidity) overnight.
DMSO was added to all wells of 384 well V bottom polystyrene plate (Greiner, Cat#781280) except to columns 1 and 13, rows O and P and wells M13-M23 and N13-N23. Test compounds (60 μL, 10 mM) were added to Column 1 and 13 (A1 through N1 and A13 through L13). Test compounds were serially diluted 1/3 by transferring and mixing 20 μl sample with 40 μL DMSO.
DMSO (40 μL) was added to wells of 384 well V bottom polystyrene plate: O2 through O11, M14 through M23, N14 through N23, and O14 through O23. AM630 (also known as [6-iodo-2-methyl-1-[2-(4-morpholinyl)ethyl]-1H-indol-3-yl](4-methoxyphenyl)-methanone, Cayman Chemical, Cat#10006974) (60 μL, 10 mM) was added to O1; and 1-(2,4-dichlorophenyl)-7-[(4-fluorophenyl)methylene]-4,5,6,7-tetrahydro-N-1-piperidinyl-1H-indazole-3-carboxamide (60 μL, 10 mM) was added to N13. The control was serially diluted 1/3 by transferring and mixing 20 μl sample with 40 μL DMSO. This process resulted 11 doses per control, 10 mM to […].
Cells plated the day prior to the assay in clear bottom plates were viewed on an inverse microscope to ensure confluency in the range of 60-75%. […]

T1 sequence (P34972 whole entry): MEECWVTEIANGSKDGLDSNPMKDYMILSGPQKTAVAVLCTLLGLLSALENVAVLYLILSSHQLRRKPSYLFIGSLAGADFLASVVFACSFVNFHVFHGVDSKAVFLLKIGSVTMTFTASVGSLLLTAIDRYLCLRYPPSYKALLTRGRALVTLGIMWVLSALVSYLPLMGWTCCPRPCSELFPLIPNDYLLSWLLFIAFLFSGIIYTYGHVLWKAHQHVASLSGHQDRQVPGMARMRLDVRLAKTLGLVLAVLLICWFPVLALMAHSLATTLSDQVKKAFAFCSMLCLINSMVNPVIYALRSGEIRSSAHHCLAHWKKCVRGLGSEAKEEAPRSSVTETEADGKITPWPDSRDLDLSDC

SMILES | EC50
COCCn1c(=O)cc(NC2CCN(S(=O)(=O)C(F)(F)F)CC2)c2cc(C(c3ccc(Cl)cc3)c3ccc(Cl)cc3)ccc21 [Compound 110, 6-(bis(4-chlorophenyl)methyl)-1-(2-methoxyethyl)-4-((1-((trifluoromethyl)sulfonyl)piperidin-4-yl)amino)quinolin-2(1H)-one] | > 10 µM
O=C(O)CCCOc1ccc(Nc2cc(=O)[nH]c3ccc(C(c4ccc(Cl)cc4)c4ccc(Cl)cc4)cc23)cc1 [Compound 121, 4-[4-({6-[Bis(4-chlorophenyl)methyl]-2-oxo-1,2-dihydroquinolin-4-yl}amino)phenoxy]butanoic acid] | > 10 µM
NC(=O)COc1ccc(Nc2cc(=O)[nH]c3ccc(C(c4ccc(Cl)cc4)c4ccc(Cl)cc4)cc23)cc1 [Compound 111, 2-(4-((6-(bis(4-chlorophenyl)methyl)-2-oxo-1,2-dihydroquinolin-4-yl)amino)phenoxy)acetamide] | > 10 µM
CCS(=O)(=O)N1CCC(Nc2cc(=O)[nH]c3ccc(C(c4ccc(Cl)cc4)c4ccc(Cl)cc4)cc23)CC1 [Compound #56, 6-(bis(4-chlorophenyl)methyl)-4-((1-(ethylsulfonyl)piperidin-4-yl)amino)quinolin-2(1H)-one] | > 10 µM
O=c1cc(Nc2cccc(C(F)(F)F)c2)c2cc(C(c3ccc(Cl)cc3)c3ccc(Cl)cc3)ccc2[nH]1 [Compound 75, 6-[Bis(4-chlorophenyl)methyl]-4-{[3-(trifluoromethyl)phenyl]amino}quinolin-2(1H)-one] | > 10 µM
CC(C)(C)OC(=O)COc1ccc(Nc2cc(=O)[nH]c3ccc(C(c4ccc(Cl)cc4)c4ccc(Cl)cc4)cc23)cc1 [Compound 105, tert-butyl 2-(4-((6-(bis(4-chlorophenyl)methyl)-2-oxo-1,2-dihydroquinolin-4-yl)amino)phenoxy)acetate] | > 10 µM
O=c1cc(Nc2ccc(Cl)c(F)c2)c2cc(C(c3ccc(Cl)cc3)c3ccc(Cl)cc3)ccc2[nH]1 [Compound 83, 6-[Bis(4-chlorophenyl)methyl]-4-[(4-chloro-3-fluorophenyl)amino]quinolin-2(1H)-one] | > 10 µM
NC(=O)c1ccc(Nc2cc(=O)[nH]c3ccc(C(c4ccc(Cl)cc4)c4ccc(Cl)cc4)cc23)cc1 [Compound 87, 4-({6-[Bis(4-chlorophenyl)methyl]-2-oxo-1,2-dihydroquinolin-4-yl}amino)benzamide] | > 10 µM
COC(=O)c1ccc(Nc2cc(=O)[nH]c3ccc(C(c4ccc(Cl)cc4)c4ccc(Cl)cc4)cc23)cc1 [Compound 85, Methyl 4-({6-[bis(4-chlorophenyl)methyl]-2-oxo-1,2-dihydroquinolin-4-yl}amino)benzoate] | > 10 µM
O=c1cc(NC2CCN(c3ccccc3)CC2)c2cc(C(c3ccc(Cl)cc3)c3ccc(Cl)cc3)ccc2[nH]1 [Compound #60, 6-[bis(4-chlorophenyl)methyl]-4-[(1-phenylpiperidin-4-yl)amino]quinolin-2-ol] | > 10 µM
O=c1cc(NCc2ccc(C(F)(F)F)cn2)c2cc(C(c3ccc(Cl)cc3)c3ccc(Cl)cc3)ccc2[nH]1 [Compound 78, 6-[Bis(4-chlorophenyl)methyl]-4-({[5-(trifluoromethyl)pyridin-2-yl]methyl}amino)quinolin-2(1H)-one] | > 10 µM
O=c1cc(NC2CCCCC2)c2cc(C(c3ccc(Cl)cc3)c3ccc(Cl)cc3)ccc2[nH]1 [Compound #71, 6-(bis(4-chlorophenyl)methyl)-4-(cyclohexylamino)quinolin-2(1H)-one] | > 10 µM
O=C(O)CC(=O)N1CCC(Nc2cc(=O)[nH]c3ccc(C(c4ccc(Cl)cc4)c4ccc(Cl)cc4)cc23)CC1 [Compound 96, 3-[4-({6-[Bis(4-chlorophenyl)methyl]-2-oxo-1,2-dihydroquinolin-4-yl}amino)piperidin-1-yl]-3-oxopropanoic acid] | > 10 µM
O=C(O)COc1ccc(Nc2cc(=O)[nH]c3ccc(C(c4ccc(Cl)cc4)c4ccc(Cl)cc4)cc23)cc1 [Compound 109, 2-(4-((6-(bis(4-chlorophenyl)methyl)-2-oxo-1,2-dihydroquinolin-4-yl)amino)phenoxy)acetic acid] | > 10 µM
CCOC(=O)CS(=O)(=O)N1CCC(Nc2cc(=O)[nH]c3ccc(C(c4ccc(Cl)cc4)c4ccc(Cl)cc4)cc23)CC1 [Compound 102, ethyl 2-((4-((6-(bis(4-chlorophenyl)methyl)-2-oxo-1,2-dihydroquinolin-4-yl)amino)piperidin-1-yl)sulfonyl)acetate] | > 10 µM
NC(=O)CCC(=O)N1CCC(Nc2cc(=O)[nH]c3ccc(C(c4ccc(Cl)cc4)c4ccc(Cl)cc4)cc23)CC1 [Compound 112, 4-[4-({6-[Bis(4-chlorophenyl)methyl]-2-oxo-1,2-dihydroquinolin-4-yl}amino)piperidin-1-yl]-4-oxobutanamide] | > 10 µM
CC(C)(C)OC(=O)/N=C(/NC(=O)OC(C)(C)C)N1CCC(Nc2cc(=O)[nH]c3ccc(C(c4ccc(Cl)cc4)c4ccc(Cl)cc4)cc23)CC1 [Compound 119, (Z)-tert-butyl ((4-((6-(bis(4-chlorophenyl)methyl)-2-oxo-1,2-dihydroquinolin-4-yl)amino)piperidin-1-yl)((tert-butoxycarbonyl)imino)methyl)carbamate] | > 10 µM
O=c1cc(NCc2ccc(C(F)(F)F)nc2)c2cc(C(c3ccc(Cl)cc3)c3ccc(Cl)cc3)ccc2[nH]1 [Compound #70, 6-(bis(4-chlorophenyl)methyl)-4-(((6-(trifluoromethyl)pyridin-3-yl)methyl)amino)quinolin-2(1H)-one] | > 10 µM
O=c1cc(NCc2ccc(C(F)(F)F)cc2)c2cc(C(c3ccc(Cl)cc3)c3ccc(Cl)cc3)ccc2[nH]1 [Compound 58, 6-[Bis(4-chlorophenyl)methyl]-4-{[4-(trifluoromethyl)benzyl]amino}quinolin-2(1H)-one] | > 10 µM
O=c1cc(NC2CCN(S(=O)(=O)N3CCCC3)CC2)c2cc(C(c3ccc(Cl)cc3)c3ccc(Cl)cc3)ccc2[nH]1 [Compound #81, 6-(bis(4-chlorophenyl)methyl)-4-((1-(pyrrolidin-1-ylsulfonyl)piperidin-4-yl)amino)quinolin-2(1H)-one] | > 10 µM
CC(C)(C)OC(=O)CCN1CCC(Nc2cc(=O)[nH]c3ccc(C(c4ccc(Cl)cc4)c4ccc(Cl)cc4)cc23)CC1 [Compound 114, tert-butyl 3-(4-((6-(bis(4-chlorophenyl)methyl)-2-oxo-1,2-dihydroquinolin-4-yl)amino)piperidin-1-yl)propanoate] | > 10 µM
NC(=O)Cn1c(=O)cc(NC2CCN(S(=O)(=O)C(F)(F)F)CC2)c2cc(C(c3ccc(Cl)cc3)c3ccc(Cl)cc3)ccc21 [Compound #90, 2-(6-(bis(4-chlorophenyl)methyl)-2-oxo-4-((1-((trifluoromethyl)sulfonyl)piperidin-4-yl)amino)quinolin-1 (2H)-yl)acetamide] | > 10 µM
COCCOc1ccc(Nc2cc(=O)[nH]c3ccc(C(c4ccc(Cl)cc4)c4ccc(Cl)cc4)cc23)cc1 [Compound 94, 6-[Bis(4-chlorophenyl)methyl]-4-{[4-(2-methoxyethoxy)phenyl]amino}quinolin-2(1H)-one] | > 10 µM
COC(=O)Cc1ccc(Nc2cc(=O)[nH]c3ccc(C(c4ccc(Cl)cc4)c4ccc(Cl)cc4)cc23)cc1 [Compound 124, Methyl [4-({6-[bis(4-chlorophenyl)methyl]-2-oxo-1,2-dihydroquinolin-4-yl}amino)phenyl]acetate] | > 10 µM
